The EC50 is the concentration that produces a half-maximal response.

Read-outs that look alike come from different tables or passages of the source. Where only a bound is given, the exact number is not on record here.

Data set [1] concerns NFkB pathway THP1-Dual cells. The experiment in a line: Stimulation of human THP-1 monocytic cells, THP1-Dual reporter cells (SEAP, NF-kB). In kind it is cell-based. As for the experimental part:
The compounds/conjugates of formula (II) according to the disclosure were subjected to pharmacological testing for determining their activity on human monocytic cells that express at their membrane surface Fc receptors that show binding specificity for the Fc part of the compounds/conjugates of formula (II). The below tests involving measuring the in vitro activity of some compounds/conjugates of formula (II) of the disclosure were carried out using THP1-Dual™ cells as reporter monocyte cells. […] THP1-Dual™ cells (#thpd-nfis) from InvivoGen were used according to the manufacturer's instructions. The cells were obtained by stable integration of two inducible reporter constructs in human THP-1 monocyte cells: an optimized Secreted Embryonic Alkaline Phosphatase (SEAP) reporter gene which is placed under the control of the IFN-β minimal promoter fused to five NF-κB and three c-Rel binding sites and a Secreted Lucia luciferase gene which is placed under the control of an ISG54 minimal promoter fused with five interferon (IFN)-stimulated response elements. As a result, THP1-Dual™ cells allow to study the activation of the NF-κB pathway by monitoring the activity of SEAP, and the interferon regulatory factor pathway, by assessing the activity of Lucia luciferase.

Another data set concerns the target human CEACAM5 (human) (UniProt P06731). The experiment in a line: cell-based or functional assay.
The target in data set [2] is Fc receptors at the membrane surface of human THP-1 monocytic cells. Briefly: cell-based or functional assay.
In the next data set the target is T1, human TLR8 (Homo sapiens, UniProt Q9NR97).
T1 construct: host or cells: HEK293 (HEK-Blue hTLR8); engineered variant additionally transfected with the CEACAM5 tumor antigen gene
T1 sequence (Q9NR97 27-1041): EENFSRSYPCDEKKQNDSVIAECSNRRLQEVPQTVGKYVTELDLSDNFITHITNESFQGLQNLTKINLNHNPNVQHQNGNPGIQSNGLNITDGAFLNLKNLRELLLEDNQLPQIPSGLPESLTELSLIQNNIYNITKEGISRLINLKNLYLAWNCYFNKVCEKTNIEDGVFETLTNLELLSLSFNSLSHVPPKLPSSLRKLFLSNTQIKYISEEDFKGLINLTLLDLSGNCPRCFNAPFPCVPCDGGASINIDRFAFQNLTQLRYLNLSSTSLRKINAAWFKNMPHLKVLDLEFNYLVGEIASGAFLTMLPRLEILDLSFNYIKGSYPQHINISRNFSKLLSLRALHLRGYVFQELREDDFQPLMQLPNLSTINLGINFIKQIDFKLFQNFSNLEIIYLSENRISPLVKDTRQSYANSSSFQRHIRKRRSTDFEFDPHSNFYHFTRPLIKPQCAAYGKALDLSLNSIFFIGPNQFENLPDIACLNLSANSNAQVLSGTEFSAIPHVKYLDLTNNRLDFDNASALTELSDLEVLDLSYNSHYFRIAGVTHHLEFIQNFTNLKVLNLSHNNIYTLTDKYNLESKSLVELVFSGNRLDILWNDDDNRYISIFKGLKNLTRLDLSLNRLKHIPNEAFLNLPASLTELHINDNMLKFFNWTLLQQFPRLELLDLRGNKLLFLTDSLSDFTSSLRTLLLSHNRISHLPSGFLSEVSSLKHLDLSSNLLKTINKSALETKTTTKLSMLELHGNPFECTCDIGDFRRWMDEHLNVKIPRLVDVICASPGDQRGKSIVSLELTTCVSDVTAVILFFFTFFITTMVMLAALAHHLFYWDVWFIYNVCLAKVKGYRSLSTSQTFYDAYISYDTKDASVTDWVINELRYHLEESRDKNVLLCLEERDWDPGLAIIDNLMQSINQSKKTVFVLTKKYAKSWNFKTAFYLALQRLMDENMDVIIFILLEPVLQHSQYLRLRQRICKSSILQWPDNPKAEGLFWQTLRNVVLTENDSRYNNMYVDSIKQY
Briefly: TLR8 pathway activation, parental HEK-Blue hTLR8 reporter cells (SEAP). In kind it is cell-based. Conditions: unnumbered table b703. The source says:
(§1) HEK-Blue™ hTLR7 Cells (#hkb-htlr7) and HEK-Blue™ hTLR8 Cells (#hkb-htlr8) cells from InvivoGen and the engineered tumor antigen expressing cells were used according to the manufacturer's instructions. The HEK-Blue™ hTLR7 and HEK-Blue™ hTLR8 cells were obtained by co-transfection of the hTLR7 or hTLR8 gene in HEK293 cells and an optimized Secreted Embryonic Alkaline Phosphatase (SEAP) reporter gene which is placed under the control of the IFN-β minimal promoter fused to five NF-κB and AP-1-binding sites. The human tumor antigen expressing HEK-Blue™ hTLR7 and hTLR8 cells were obtained by transfection of the tumor antigen genes in the parental cells followed by a polyclonal selection to enrich in cells overexpressing the tumor antigen. Stimulation with a TLR7/8 ligand activates NF-kB and AP-1 which induce the production of SLAP. The cells are seeded in 96-well plate at 3.10E4 cells/well and incubated 24 hours at 37C, 5% CO2 before adding the conjugates to be evaluated.

The target in the next data set is T2, human TLR7 (Homo sapiens, UniProt Q9NYK1).
T2 construct: host or cells: HEK293 (HEK-Blue hTLR7); engineered variants additionally transfected with tumor antigen genes
T2 sequence (Q9NYK1 27-1049): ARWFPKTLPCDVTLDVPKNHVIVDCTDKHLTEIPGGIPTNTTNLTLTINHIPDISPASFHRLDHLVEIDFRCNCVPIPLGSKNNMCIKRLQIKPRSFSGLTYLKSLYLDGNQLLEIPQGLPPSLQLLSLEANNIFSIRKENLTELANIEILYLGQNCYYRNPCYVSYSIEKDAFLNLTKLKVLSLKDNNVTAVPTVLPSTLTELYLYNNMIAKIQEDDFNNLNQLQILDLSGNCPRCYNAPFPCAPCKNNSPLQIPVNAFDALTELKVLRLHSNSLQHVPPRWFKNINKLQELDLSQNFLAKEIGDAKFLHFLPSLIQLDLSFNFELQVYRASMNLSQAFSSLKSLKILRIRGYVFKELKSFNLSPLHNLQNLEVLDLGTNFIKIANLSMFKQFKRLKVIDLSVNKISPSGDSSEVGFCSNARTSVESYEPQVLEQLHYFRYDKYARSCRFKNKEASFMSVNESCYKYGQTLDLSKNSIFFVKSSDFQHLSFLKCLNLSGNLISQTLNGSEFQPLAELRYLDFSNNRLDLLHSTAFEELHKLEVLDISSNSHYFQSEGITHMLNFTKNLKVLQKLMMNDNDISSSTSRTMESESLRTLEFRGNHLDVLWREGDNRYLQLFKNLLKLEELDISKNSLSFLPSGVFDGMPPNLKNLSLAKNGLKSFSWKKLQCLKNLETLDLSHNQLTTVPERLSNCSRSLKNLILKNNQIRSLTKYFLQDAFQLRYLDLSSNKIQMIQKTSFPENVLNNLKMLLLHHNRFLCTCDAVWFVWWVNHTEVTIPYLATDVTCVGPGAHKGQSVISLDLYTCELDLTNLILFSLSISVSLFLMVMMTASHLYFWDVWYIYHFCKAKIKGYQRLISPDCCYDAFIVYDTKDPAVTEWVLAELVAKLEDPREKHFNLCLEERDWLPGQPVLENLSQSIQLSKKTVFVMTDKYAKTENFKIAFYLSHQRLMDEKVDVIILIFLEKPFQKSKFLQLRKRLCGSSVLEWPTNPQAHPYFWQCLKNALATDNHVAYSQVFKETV
Briefly: TLR7 pathway activation, parental HEK-Blue hTLR7 reporter cells (SEAP). In kind it is cell-based. As for the experimental part:
The below tests involving measuring the in vitro activity of some compounds of the disclosure on human TLR7 pathway were carried out using parental HEK-Blue™ hTLR7 cells and engineered tumor antigen-expressing HEK-Blue™ hTLR7 cells respectively as reporter cells.
as §1, with “evaluated. The cells are subsequently incubated with 3-fold serial dilutions of each of the compounds (0.01 nM to 1 μM) for 96 hours at 37° C., 5% CO2. Next, 20 μL of the supernatant is harvested and incubated with 200 μL of QUANTI-Blue™ Solution.” for “evaluated.”

The conditions of data set [3]: monotherapy, intravenous; cited from earlier work.
[4] abbreviates: Homo sapiens, THP1-Dual, Table 6, reference ligands.
The mark [5] stands for this setting: Table 1a, 96 hours, read-out: EC50 HEKBlue-hTLR7.

Chain of human CEACAM5 (human) (P06731 35-685 limits assumed): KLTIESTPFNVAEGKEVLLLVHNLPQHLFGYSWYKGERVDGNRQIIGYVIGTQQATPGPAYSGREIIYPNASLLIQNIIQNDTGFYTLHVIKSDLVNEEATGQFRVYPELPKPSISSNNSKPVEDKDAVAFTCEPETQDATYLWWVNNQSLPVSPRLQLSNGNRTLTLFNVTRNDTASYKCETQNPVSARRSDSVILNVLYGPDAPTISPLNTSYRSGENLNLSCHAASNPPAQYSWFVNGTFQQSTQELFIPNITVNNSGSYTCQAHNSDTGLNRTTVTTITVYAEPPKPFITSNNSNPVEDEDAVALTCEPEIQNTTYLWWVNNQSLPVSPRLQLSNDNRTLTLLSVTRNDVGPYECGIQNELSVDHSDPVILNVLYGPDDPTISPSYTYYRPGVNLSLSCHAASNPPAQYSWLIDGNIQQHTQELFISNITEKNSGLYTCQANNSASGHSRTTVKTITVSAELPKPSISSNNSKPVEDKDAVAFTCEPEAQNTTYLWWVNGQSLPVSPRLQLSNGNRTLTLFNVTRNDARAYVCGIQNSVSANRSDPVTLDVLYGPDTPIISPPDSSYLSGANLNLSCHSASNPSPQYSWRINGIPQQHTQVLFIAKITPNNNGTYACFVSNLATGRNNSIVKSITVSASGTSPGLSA

Take “CEACAM5_Tusamitamab-PEG4-R848 ADC [Example 2]”: the EC50 in data set [1] (Table 7a, 96 hours) worked out at 0.8 nM.

In the data set with human CEACAM5 (human), Irrelevant human IgG1 (antibody) yielded an Internalized fluorescent intensity (Median) on HEKBlue-hTLR7-CEACAM5, 4 hours of 144; an Internalized fluorescent intensity (Median) on HEKBlue-hTLR7-CEACAM5, 24 hours of 525; an Internalized fluorescent intensity (Median) on HEKBlue-hTLR7-CEACAM5, 48 hours of 738; an Internalized fluorescent intensity (Median) on HEKBlue-hTLR7-CEACAM5, 72 hours of 833. For the same compound, in the data set with human CEACAM5 (human), the Internalized fluorescent intensity (Median) on HEKBlue-hTLR8-CEACAM5, 4 hours was found to be 68; the Internalized fluorescent intensity (Median) on HEKBlue-hTLR8-CEACAM5, 24 hours turned out to be 120; the Internalized fluorescent intensity (Median) on HEKBlue-hTLR8-CEACAM5, 48 hours came to 151; the Internalized fluorescent intensity (Median) on HEKBlue-hTLR8-CEACAM5, 72 hours is 167. For the compound “CEACAM5_Tusamitamab-PEG24-R848 ADC [Example 20a]”, it took 0.9 nM to reach a half-maximal effect in data set [1] (Table 7a, 96 hours) (EC50). Take `CCNCc1nc2c(N)nc3ccccc3c2n1CC(C)(C)O` [Gardiquimod, reference compound]: the EC50 in data set [1] (setting [4]) was above 4000 nM. For the compound “CEACAM5_Tusamitamab-PEG8-R848 ADC (Example 8) (antibody)”, the EC50 NFkB pathway THP1-Dual cells in data set [2] amounted to 1.9 nM.

On to `CCOCc1nc2c(N)nc3ccccc3c2n1CC(C)(C)N` [Example 3M012, 1-(2-amino-2-methylpropyl)-2-(ethoxymethyl)-1H-imidazo[4,5-c]quinolin-4-amine, reference compound], for which the EC50 at human TLR8 was determined as 2540 nM; on human TLR7 (setting [5]), 518 nM; at human TLR7 (unnumbered table b703, read-out: EC50 on HEK-Blue ™ hTLR7 cells), 518 nM. `CCCN(CCC)C(=O)C1=Cc2ccc(-c3ccc(C(=O)N4CCCC4)cc3)cc2N=C(N)C1` [Motolimod, reference compound] came in with an EC50 in data set [1] (setting [4]) of 394 nM. In the case of “CEACAM5_Tusamitamab-PEG24-R848 ADC (Example 20a) (antibody)”, in data set [2], the EC50 NFkB pathway THP1-Dual cells is 0.9 nM.

Regarding “CEACAM5_Tusamitamab-PEG4-R848 ADC (Example 2) (antibody)”, in data set [2], the EC50 NFkB pathway THP1-Dual cells was 0.8 nM. Still for that read-out and setting: with “CEACAM5_Tusamitamab-PEG12-R848 ADC (Example 14) (antibody)” the figure was 2.8 nM. As for `CCOCc1nc2c(N)nc3ccccc3c2n1CC(C)(C)O` [Example R848, 4-amino-2-(ethoxymethyl)-alpha, alpha-dimethyl-1H-imidazo(4,5-c)quinoline-1-ethanol, reference compound], the EC50 in data set [1] (setting [4]) is 212 nM; in data set [1] (Homo sapiens, THP1-Dual, Table 7b, 96 hours) it was 238 nM. In data set [1] (Table 7a, 96 hours), “CEACAM5_Tusamitamab-PEG12-R848 ADC [Example 14]” displayed an EC50 of 2.8 nM. In data set [1] (Table 7a, 96 hours), “CEACAM5_Tusamitamab-PEG8-R848 ADC [Example 8]” displayed an EC50 of 1.9 nM. On to “CEACAM5_Tusamitamab_E152C_S375C-PEG24-R848 ADC [Example 43]”, for which the EC50 was above 1000 nM at human TLR7 (Table 1c, 96 hours, read-out: EC50 HEKBlue-hTLR7) and 2 nM in data set [1] (Table 7b, 96 hours).

For “EGFR_cetuximab-PEG24-R848 ADC [Example 23]”, the EC50 on human TLR7 (setting [5]) was above 1000 nM. On to `CCOCc1nc2c(N)nc3ccccc3c2n1CC(C)(C)O.O=S(=O)(O)O` [BDB-001], for which the “treatment-related adverse events, share of the enrolled patients” value in data set [3] is recorded as “around 78%”.
